Assay [1] deals with T1, STAT3 protein (Homo sapiens, UniProt P40763).
T1 construct: human STAT3 protein (residues 122-722) fused to His-tag; His-tag
Kind of assay: In vitro competitive STAT3 binding assay (fluorescence polarization). From the text: To quantitatively determine the binding affinities of STAT3 inhibitors to STAT3 protein, a sensitive and quantitative in vitro binding assay was developed based upon fluorescence polarization (FP) method. For this FP assay, 5-carboxyfluorescein (5-Fam) was coupled to a phosphopeptide (phospho-Tyr-Leu-Pro-Gln-Thr-Val-amide) with two beta-alanine and one glycine residues as the spacer between 5-Fam and the phosphopeptide to obtain 5-Fam-beta-Ala-beta-Ala-Gly-phospho-Tyr-Leu-Pro-Gln-Thr-Val-amide as the fluorescently tagged tracer, which was named as STT2 peptide. […] The recombinant human STAT3 protein (residues 122-722) fused to His-tag was stable and soluble.
Competitive binding experiments were carried out using 150 nM of STAT3 protein and 5 nM of STT2 peptide with different concentrations of a tested STAT3 inhibitor. For each experiment, two controls were included. One control contained STAT3 protein and STT2 peptide, and the second control contained STT2 peptide only. The polarization values were measured after 2-3 hours of incubation using an ULTRA READER (Tecan U.S. Inc., Research Triangle Park, N.C.). IC50 values, the inhibitor concentration at which 50% of the fluorescently tagged STT2 peptide is displaced by STAT3 inhibitors, was determined from a plot using nonlinear least-squares analysis using GRAPHPAD PRISM software (GraphPad Software, Inc., San Diego, Calif.). […]

The subject of assay [2] is MDA-MB-231 cancer cell line. The experiment in a line: Cell growth assay (WST-8). Format: cell-based. To be noted: Homo sapiens, MDA-MB-231, 96 h; WST-8, 4 days; read-out: Inhibition of cell growth IC50, MDA-MB-231 cancer cell line. The procedure: (§1) The effect of STAT3 compounds on cell growth was evaluated by a WST-8 [2-(2-methoxy-4-nitrophenyl)-3-(4-nitrophenyl)-5-(2,4-disulfophenyl)-2H-tetrazolium, monosodium salt assay (Dojindo Molecular Technologies, Inc). Cells (3000-4000 cells in each well) were cultured in 96-well tissue culture plates in medium (200 μL) containing various concentrations of STAT3 compounds for 4 days. At the end of incubation, WST-8 dye (20 μL) was added to each well and incubated for an additional 1-3 h, and then the absorbance was measured in a microplate reader (Molecular Devices) at 450 nm. Cell growth inhibition was evaluated as the ratio of the absorbance of the sample to that of the control.

Assay [3] has as its system MDA-MB-468 cancer cell line. Kind of assay: Cell growth assay (WST-8). Format: cell-based. As to conditions: Homo sapiens, MDA-MB-468, 96 h; WST-8, 4 days; read-out: Inhibition of cell growth IC50, MDA-MB-468 cancer cell line. The procedure: as §1
Setting [4] is: FP competitive binding, fluorescently tagged STT2 peptide tracer, read-out: Binding affinities to STAT3 IC50.

Each structure is given as a SMILES string. Where two headings read alike, the source gives them in different places. A value given as a limit tells only on which side of the number the result lay.

This passage reports IC50 results from patent US20110319362A1, “STAT3 LIGANDS AND THERAPEUTIC USES THEREOF” (priority 2008, published 2011).

T1 sequence (P40763 122-722): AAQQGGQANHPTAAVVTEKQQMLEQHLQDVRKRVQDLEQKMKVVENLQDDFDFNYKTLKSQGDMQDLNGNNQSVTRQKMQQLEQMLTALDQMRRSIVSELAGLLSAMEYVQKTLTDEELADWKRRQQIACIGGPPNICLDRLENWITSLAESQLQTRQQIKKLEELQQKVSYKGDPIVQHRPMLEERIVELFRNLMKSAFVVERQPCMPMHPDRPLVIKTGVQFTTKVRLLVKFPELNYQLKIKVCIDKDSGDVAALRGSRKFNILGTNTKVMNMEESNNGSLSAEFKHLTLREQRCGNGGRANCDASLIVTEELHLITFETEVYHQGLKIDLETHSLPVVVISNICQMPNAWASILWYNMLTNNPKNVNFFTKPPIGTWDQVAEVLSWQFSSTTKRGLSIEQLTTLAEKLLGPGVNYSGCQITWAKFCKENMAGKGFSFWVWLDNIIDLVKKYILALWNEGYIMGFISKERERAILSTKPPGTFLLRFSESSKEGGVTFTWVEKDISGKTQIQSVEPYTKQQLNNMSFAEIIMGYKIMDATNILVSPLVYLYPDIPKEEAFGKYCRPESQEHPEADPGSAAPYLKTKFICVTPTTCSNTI

On to `NC(=O)CC[C@H](NC(=O)[C@@H]1CC[C@@H]2CCCC[C@H](NC(=O)CCc3ccc(O)c(C(=O)O)c3)C(=O)N21)C(=O)NCc1ccccc1` [Example 24], for which the IC50 in assay [1] (setting [4]), in assay [2] and in assay [3] was above 100 µM throughout.

As to `CC(=O)N[C@@H](Cc1ccc(OCC(=O)O)cc1)C(=O)N[C@H]1CCCC[C@H]2CC[C@@H](C(=O)N[C@@H](CCC(N)=O)C(=O)NCc3ccccc3)N2C1=O` [Example 7], the IC50 is above 50 µM in assay [1] (setting [4]), above 100 µM in assay [2] and above 100 µM in assay [3].

Consider `CCCCCCCCCCCCCCCCN1CCN(CCC(=O)N[C@@H](Cc2ccc(CP(=O)(O)O)cc2)C(=O)N[C@H]2CCCCC3CC[C@@H](C(=O)N[C@@H](CCC(N)=O)C(=O)NCc4ccccc4)N3C2=O)CC1` (stereo partly drawn), for which the IC50 in assay [1], in assay [2] and in assay [3] was above 100 µM each time.

Regarding `CC(C)(C)OC(=O)CCc1ccc(CCC(=O)N[C@H]2CCCC[C@H]3CC[C@@H](C(=O)NCC[C@H](O)CO)N3C2=O)cc1` [Example 3], the IC50 in assay [1] (setting [4]) is above 100 µM; in assay [2], above 30 µM; in assay [3] it was above 100 µM.

`CCCCCCCCCCCCCCCCN1CCN(CCC(=O)N[C@@H](Cc2ccc(OP(=O)(O)O)cc2)C(=O)N[C@H]2CCCCC3CC[C@@H](C(=O)NCCCCN(C)C)N3C2=O)CC1` (stereo partly drawn): the IC50 is below 20 µM in assay [1] (setting [4]), below 100 µM in assay [2] and below 50 µM in assay [3].

Regarding `NC(=O)CC[C@H](NC(=O)[C@@H]1CCC2CCCC[C@H](NC(=O)c3cc4cc(OP(=O)(O)O)ccc4[nH]3)C(=O)N21)C(=O)NCc1ccccc1` (stereo partly drawn) [Example 57], the IC50 in assay [1] was below 1 µM; in assay [2] it was above 100 µM; in assay [3], above 100 µM.

On to `CC[C@H](NC(=O)[C@@H]1CCC2CCCC[C@H](NC(=O)[C@H](Cc3ccc(OP(=O)(O)O)cc3)NC(=O)OCc3ccccc3)C(=O)N21)C(=O)NCc1ccccc1` (stereo partly drawn), for which the IC50 in assay [1] is above 10 µM; in assay [2] it was above 30 µM; in assay [3] it was above 30 µM.

`CN(C)[C@@H](Cc1ccc(OCP(=O)(O)O)cc1)C(=O)NC1CCCC[C@H]2CC[C@@H](C(=O)N[C@@H](Cc3c[nH]cn3)C(=O)NCc3ccccc3)N2C1=O` (stereo in doubt) [Example 33]: the IC50 in assay [1] (setting [4]), in assay [2] and in assay [3] was above 100 µM each time.

Turning to `CN(C)[C@@H](Cc1ccc(OC(C(=O)O)C(=O)O)cc1)C(=O)N[C@H]1CCCCC2CC[C@@H](C(=O)N[C@@H](Cc3c[nH]cn3)C(=O)NCc3ccccc3)N2C1=O` (stereo partly drawn), the IC50 in assay [1] (setting [4]) is above 10 µM; in assay [2], above 100 µM; in assay [3], above 100 µM.

As to `CCCCCCCCCCCCCCCCNC(=O)[C@H](CCC(N)=O)NC(=O)[C@@H]1CCC2CCCC[C@H](NC(=O)[C@@H](N)Cc3ccc(OP(=O)(O)O)cc3)C(=O)N21` (stereo partly drawn), the half-maximal inhibitory concentration (IC50) in assay [1] (setting [4]) is above 5 µM; in assay [2], below 50 µM; in assay [3] it was below 50 µM.

In the case of `NC(=O)CC[C@H](NC(=O)[C@@H]1CCC2CCCC[C@H](NC(=O)[C@@H](N)Cc3ccc(OP(=O)(O)O)cc3)C(=O)N21)C(=O)NCc1ccccc1` (stereo partly drawn), the values for the IC50 in assay [1], in assay [2] and in assay [3] were below 1 µM, above 20 µM and above 100 µM, respectively.

Turning to `NC(=O)CC[C@H](NC(=O)[C@@H]1CC[C@@H]2CCCC[C@H](NC(=O)[C@H](Cc3ccc(OP(=O)(O)O)cc3)NC(=O)CCc3ccccc3)C(=O)N21)C(=O)NCc1ccccc1` [Example 2], the IC50 in assay [1] was below 1 µM; in assay [2], above 20 µM; in assay [3] it was above 100 µM.

As to `CC(=O)N[C@@H](Cc1ccc(OCP(=O)(O)O)cc1)C(=O)NC1CCCC[C@H]2CC[C@@H](C(=O)N[C@@H](Cc3c[nH]cn3)C(=O)NCc3ccccc3)N2C1=O` (stereo in doubt) [Example 32], the IC50 in assay [1] is below 30 µM; in assay [2], above 100 µM; in assay [3], above 100 µM.

As to `CCOC(=O)C(Oc1ccc(C[C@@H](C(=O)N[C@H]2CCCCC3CC[C@@H](C(=O)N[C@@H](CCCNC(C)=O)C(=O)NCc4ccccc4)N3C2=O)N(C)C)cc1)C(=O)OCC` (stereo partly drawn), the IC50 in assay [1] (setting [4]) was above 10 µM; in assay [2], above 100 µM; in assay [3], above 100 µM.

In the case of `CCCCCCCCCCCCCCCCN1CCN(CCC(=O)N[C@@H](Cc2ccc(OP(=O)(O)O)cc2)C(=O)N[C@H]2CCCCC3CC[C@@H](C(=O)N[C@@H](Cc4c[nH]cn4)C(=O)NCc4ccccc4)N3C2=O)CC1` (stereo partly drawn), the IC50 was below 5 µM in assay [1] (setting [4]), below 30 µM in assay [2] and below 30 µM in assay [3].

On to `CC(=O)N1CCC2CC[C@@H](C(=O)N[C@@H](CCC(N)=O)C(=O)NCc3ccccc3)N2C(=O)[C@@H](NC(=O)[C@@H](N)Cc2ccc(OP(=O)(O)O)cc2)C1` (stereo partly drawn), for which the IC50 in assay [1] (setting [4]) is below 5 µM; in assay [2] it was above 50 µM; in assay [3] it was above 100 µM.

Regarding `NC(=O)CC[C@H](NC(=O)[C@@H]1CC[C@@H]2CCCC[C@H](NC(=O)CCc3ccc(CP(=O)(O)O)cc3)C(=O)N21)C(=O)NCc1ccccc1` [Example 25], the IC50 in assay [1] (setting [4]), in assay [2] and in assay [3] was above 100 µM each time.

`NC(=O)CC[C@H](NC(=O)[C@@H]1CC[C@@H]2CCCC[C@H](NC(=O)[C@@H](N)Cc3ccc(CP(=O)(O)O)cc3)C(=O)N21)C(=O)NCc1ccccc1` [Example 29]: the results for the IC50 in assay [1], in assay [2] and in assay [3] were below 30 µM, above 100 µM and above 100 µM, respectively.

With `CCCCCCCCCCCCCCCCCCCCNC(=O)[C@H](CCC(N)=O)NC(=O)[C@@H]1CCC2CCCC[C@H](NC(=O)[C@H](Cc3ccc(OP(=O)(O)O)cc3)NC)C(=O)N21` (stereo partly drawn), the IC50 in assay [1] (setting [4]) was below 5 µM; in assay [2], below 30 µM; in assay [3] it was below 30 µM.

For `N[C@@H](Cc1ccc(OP(=O)(O)O)cc1)C(=O)N[C@H]1CCCCC2CC[C@@H](C(=O)N[C@@H](CCC(=O)NC(c3ccccc3)(c3ccccc3)c3ccccc3)C(=O)NCc3ccccc3)N2C1=O` (stereo partly drawn), the IC50 in assay [1] (setting [4]), in assay [2] and in assay [3] was below 10 µM in each case.

For the molecule `CC(=O)N[C@@H](Cc1ccc(O)cc1)C(=O)N[C@H]1CCCC[C@H]2CC[C@@H](C(=O)N[C@@H](CCC(N)=O)C(=O)NCc3ccccc3)N2C1=O` [Example 6], the IC50 in assay [1] (setting [4]), in assay [2] and in assay [3] was above 100 µM throughout.

Consider `CN[C@@H](Cc1ccc(OC(C(=O)O)C(=O)O)cc1)C(=O)N[C@H]1CCCCC2CC[C@@H](C(=O)N[C@@H](CCCN)C(=O)NCc3ccccc3)N2C1=O` (stereo partly drawn), for which the IC50 was above 10 µM in assay [1] (setting [4]), above 100 µM in assay [2] and above 100 µM in assay [3].

With `CC(=O)N[C@@H](Cc1ccc(CP(=O)(O)O)cc1)C(=O)N[C@H]1CCCC[C@H]2CC[C@@H](C(=O)N[C@@H](CCC(N)=O)C(=O)NCc3ccccc3)N2C1=O` [Example 30], the values for the IC50 in assay [1], in assay [2] and in assay [3] were below 30 µM, above 100 µM and above 100 µM, respectively.

Regarding `NC(=O)CC[C@H](NC(=O)[C@@H]1CCC2CCCC[C@H](NC(=O)c3cc4cc(CP(=O)(O)O)ccc4[nH]3)C(=O)N21)C(=O)NCc1ccccc1` (stereo partly drawn) [Example 58], the IC50 in assay [1] is below 10 µM; in assay [2], above 100 µM; in assay [3], above 100 µM.

In the case of `NC(=O)CCCNC(=O)[C@@H]1CCC2CCCC[C@H](NC(=O)[C@H](Cc3ccc(OP(=O)(O)O)cc3)NC(=O)OCc3ccccc3)C(=O)N21` (stereo partly drawn) [Example 16], the IC50 is below 30 µM in assay [1] (setting [4]), above 100 µM in assay [2] and above 100 µM in assay [3].

For `CCCCCCCCCCCCCCCCN1CCN(CCC(=O)N[C@@H](Cc2ccc(OP(=O)(O)O)cc2)C(=O)N[C@H]2CCCCC3CC[C@@H](C(=O)NCCc4nnc[nH]4)N3C2=O)CC1` (stereo partly drawn), the figures for the IC50 in assay [1] (setting [4]), in assay [2] and in assay [3] were below 5 µM, below 20 µM and below 20 µM, respectively.

Regarding `CCCCCCCCCCCCCCCCN1CCN(CCC(=O)N[C@@H](Cc2ccc(OP(=O)(O)O)cc2)C(=O)N[C@H]2CCCCC3CC[C@@H](C(=O)NCCc4cnc[nH]4)N3C2=O)CC1` (stereo partly drawn), the IC50 in assay [1] (setting [4]), in assay [2] and in assay [3] was below 10 µM throughout.

In the case of `COP(=O)(OC)Oc1ccc(C[C@H](N)C(=O)N[C@H]2CCCCC3CC[C@@H](C(=O)N[C@@H](C)C(=O)NCc4ccccc4)N3C2=O)cc1` (stereo partly drawn), the IC50 in assay [1] was above 100 µM; in assay [2] it was above 50 µM; in assay [3], above 100 µM.
